Values joined by “and” are separate entries in the source; they are usually repeats but may differ in a detail not shown here. Equal entries are not always repeated. “Also recorded” adds a separate entry of the source.
Assays:
[1] = Plasma propofol pharmacokinetics in Beagle dogs after intravenous, subcutaneous or rectal prodrug; assay type: in vivo
Procedure: Upon administration, the test prodrug is converted in the body into propofol, its pharmacologically active metabolite. The pharmacokinetic profile, i.e. the blood plasma concentration of propofol derived from the test prodrug, was assessed in a separate experiment. Three male Beagle dogs (8.7-10.9 kg) received intravenous, subcutaneous, or rectal doses of the prodrug (see Tab. 1, below). Blood samples were taken at pre-dose, 2 (only for intravenous and subcutaneous), 5, 15, 30 minutes, 1, 1.5, 2, 3, 4, 6, and 8 hrs after administration of the test prodrug. Blood samples were centrifuged to obtain plasma and stored frozen until analysis. The outcome of this experiment is depicted in the following Table I: […]

[2] = system: Sprague-Dawley rats
Procedure: FIG. 2 illustrates the sedative/anesthetic effects of various doses of the experimental compound when administered via the intravenous route.
For comparison, an additional two animals received a subcutaneous injection of propofol (80 mg/kg) in its commercially available liquid emulsion formulation. For further comparison, the above-described pharmacological effects of subcutaneous administration of the tested prodrug were compared with those caused by an intravenous infusion: Under halothane anesthesia, young adult rats received femoral vein catheters which were exteriorized and attached to a liquid swivel via a protectant spring. About 20 minutes after catheterization, and after full behavioral recovery from halothane anesthesia, each animal was attached to an electronic infusion pump and was administered vehicle, or 5, 10, 20, 30, or 40 mg/kg of the test prodrug (n=2 per dose) in 1 ml total volume by gradual constant-rate intravenous infusion over 10 minutes. Behavioral rating as described above began immediately following the end of infusion.

[3] = system: human subjects; conditions: intravenous infusions; cited from earlier work
[4] = anesthetic induction doses; cited from earlier work
[5] = Beagle dog 46, rectal, 16.8 mg/kg prodrug, first suppository expelled, second given, nominal dose used
[6] = Beagle dog 47, rectal, 15.7 mg/kg prodrug
[7] = Beagle dog 48, rectal, 18.4 mg/kg prodrug
[8] = Beagle dogs, i.v., 16 mg/kg prodrug, average of 3 dogs
[9] = Beagle dogs, i.v., 16 mg/kg prodrug, individual dogs 46, 47, 48, disodium salt, 16 mg/kg
[10] = Beagle dogs, rectal, 15.7-18.4 mg/kg prodrug, average of 3 dogs
[11] = Beagle dogs, subcut., 16 mg/kg prodrug, average of 3 dogs
[12] = Beagle dogs, subcut., 16 mg/kg prodrug, individual dogs 46, 47, 48, disodium salt, 16 mg/kg
[13] = rats, intravenous infusion over 10 minutes, 5-40 mg/kg

## CC(C)c1cccc(C(C)C)c1OCOP(=O)([O-])[O-].[Na+].[Na+] [O-phosphonooxymethyl propofol disodium salt]
[1]; [5]
  AUCLast of plasma propofol: 471.4 ng·h/mL
  Cmax of plasma propofol: 220 ng/mL
  Tmax of plasma propofol: 60 min
[1]; [6]
  AUCLast of plasma propofol: 204.5 ng·h/mL
  Cmax of plasma propofol: 170 ng/mL
  Tmax of plasma propofol: 15 min
[1]; [7]
  AUCLast of plasma propofol: 46.7 ng·h/mL
  Cmax of plasma propofol: 90 ng/mL
  Tmax of plasma propofol: 15 min
[1]; [8]
  AUCLast of plasma propofol: 1728 ± 256.0 ng·h/mL
  Cmax of plasma propofol: 3840 ± 1190 ng/mL
  Tmax of plasma propofol: 1.8 min
[1]; Beagle dogs, i.v., 16 mg/kg prodrug, individual dogs 46, 47, 48
  Tmax of plasma propofol: 1.8 min
[1]; [9]
  AUCLast of plasma propofol: 1776 ng·h/mL and 1956 ng·h/mL and 1451 ng·h/mL
  Cmax of plasma propofol: 2570 ng/mL and 4930 ng/mL and 4010 ng/mL
[1]; [10]
  AUCLast of plasma propofol: 240.9 ± 214.7 ng·h/mL
  Cmax of plasma propofol: 160 ± 60 ng/mL
  Tmax of plasma propofol: 30 ± 25.8 min
[1]; [11]
  AUCLast of plasma propofol: 1322 ± 557.7 ng·h/mL
  Cmax of plasma propofol: 390 ± 90 ng/mL
  Tmax of plasma propofol: 60 ± 30 min
[1]; [12]
  AUCLast of plasma propofol: 1781 ng·h/mL and 1484 ng·h/mL and 701.6 ng·h/mL
  Cmax of plasma propofol: 460 ng/mL and 420 ng/mL and 290 ng/mL
  Tmax of plasma propofol: 90 min and 60 min and 30 min
[2]; [13]
  duration of effects relative to subcutaneous administration: shorter duration compared to subcutaneous administration
  onset of sedated behavior relative to subcutaneous injection: even more rapidly than after subcutaneous-injection
[2]; rats, single subcutaneous injection, 50-300 mg/kg
  onset of sedated behavior after dosing: 5 to 10 min
[2]; rats, subcutaneous, 50 mg/kg
  duration of sedation: 1 to 1.5 h
  sedative effect compared to vehicle: mild to moderate sedation
[2]; rats, subcutaneous, 100, 200 and 300 mg/kg dose groups
  behavioral effect following sedation: loss of consciousness
[2]; rats, subcutaneous, two highest dose groups (200 and 300 mg/kg)
  duration of loss of consciousness: more than two hours
[2]; subcutaneous administration
  time after administration until plateau effect is reached: 10 to 15 min
[2]; subcutaneous administration, depending on dose
  duration for which plateau effect is maintained: up to about thirty minutes to two hours or longer
[3]
  potency of plasma propofol in suppressing EEG activity and causing a hypnotic effect, versus plasma propofol from infusions of propofol itself: significantly more potent

## CC(C)c1cccc(C(C)C)c1O [propofol, 2,6-diisopropylphenol]
[2]; rats, subcutaneous, 80 mg/kg, commercially available liquid emulsion formulation
  sedative effect: only very mild or no sedative effects; also recorded: none or only very mild sedation
[4]
  patients with respiratory consequences, including reduction in tidal volume and apnea: up to 83%
